The results in this text go back to US10660877B2 (BRISTOL-MYERS SQUIBB COMPANY, priority 2016, dated 2020).

Read-outs that look alike come from different tables or passages of the source.

Test [1] deals with human TLR7 (Homo sapiens (Human), UniProt Q9NYK1). Briefly: TLR7 inhibition reporter assay (HEK-Blue cells, SEAP reporter, gardiquimod stimulation). It is filed as cell-based. A general note: A reporter such as luciferase makes a cellular process visible.
The target in test [2] is human TLR8 (Homo sapiens (Human), UniProt Q9NR97). Nature of the test: TLR8 inhibition reporter assay (HEK-Blue cells, SEAP reporter, R848 stimulation).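 Further: compounds tested from 0.05 nM to 50 µM, 22 h at 37 °C, SEAP measured with HEK-Blue Detection, inhibition relative to agonist plus DMSO versus a known inhibitor.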
In test [3] the target is human TLR9 (Homo sapiens (Human), UniProt Q9NR96). Briefly: TLR9 inhibition reporter assay (HEK-Blue cells, SEAP reporter, ODN2006 stimulation).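 Further: compounds tested over 0.05 nM to 50 µM, 22 h incubation, inhibition taken as SEAP signal drop from agonist plus DMSO wells toward a known inhibitor control.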
[4] abbreviates: HEK-Blue cells overexpressing human TLR7, gardiquimod 7.5 μM.
Where [5] appears, read: read-out: TLR8 IC50, HEK-Blue cells overexpressing human TLR8, R848 15.9 μM.
The mark [6] stands for this setting: read-out: TLR9 IC50, HEK-Blue cells overexpressing human TLR9, ODN2006 5 nM.
The mark [7] stands for this setting: HEK-Blue cells, gardiquimod 7.5 μM.
[8] abbreviates: read-out: TLR8 IC50, HEK-Blue cells, R848 15.9 μM.
The mark [9] stands for this setting: read-out: TLR9 IC50, HEK-Blue cells, ODN2006 5 nM.

Sequence of human TLR7 (Q9NYK1 27-1049): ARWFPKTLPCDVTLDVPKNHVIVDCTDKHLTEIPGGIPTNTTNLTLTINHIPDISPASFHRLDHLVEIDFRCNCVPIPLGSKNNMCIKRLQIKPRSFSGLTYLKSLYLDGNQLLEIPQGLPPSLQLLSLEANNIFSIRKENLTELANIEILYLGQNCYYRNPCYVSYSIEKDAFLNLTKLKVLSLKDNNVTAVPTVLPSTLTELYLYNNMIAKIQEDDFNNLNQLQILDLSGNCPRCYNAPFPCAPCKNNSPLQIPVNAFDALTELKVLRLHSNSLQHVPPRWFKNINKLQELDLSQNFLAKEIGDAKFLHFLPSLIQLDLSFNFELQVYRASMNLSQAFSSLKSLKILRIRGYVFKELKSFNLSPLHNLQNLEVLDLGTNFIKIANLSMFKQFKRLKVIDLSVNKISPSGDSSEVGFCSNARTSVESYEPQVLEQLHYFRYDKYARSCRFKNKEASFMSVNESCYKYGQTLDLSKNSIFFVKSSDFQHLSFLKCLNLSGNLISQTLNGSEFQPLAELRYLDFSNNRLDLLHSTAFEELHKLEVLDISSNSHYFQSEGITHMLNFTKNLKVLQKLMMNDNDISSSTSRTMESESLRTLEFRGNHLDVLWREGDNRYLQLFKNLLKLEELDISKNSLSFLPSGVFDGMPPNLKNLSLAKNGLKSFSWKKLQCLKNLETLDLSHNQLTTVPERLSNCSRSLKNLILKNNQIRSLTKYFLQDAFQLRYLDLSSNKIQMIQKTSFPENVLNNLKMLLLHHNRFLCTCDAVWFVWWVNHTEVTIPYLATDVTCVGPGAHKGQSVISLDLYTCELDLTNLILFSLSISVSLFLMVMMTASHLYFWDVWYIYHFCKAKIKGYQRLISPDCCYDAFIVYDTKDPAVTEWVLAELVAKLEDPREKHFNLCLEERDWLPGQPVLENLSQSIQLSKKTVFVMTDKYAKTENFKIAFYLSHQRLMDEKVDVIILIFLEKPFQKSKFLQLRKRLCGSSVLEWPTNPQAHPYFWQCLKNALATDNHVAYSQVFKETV
Sequence of human TLR8 (Q9NR97 27-1041): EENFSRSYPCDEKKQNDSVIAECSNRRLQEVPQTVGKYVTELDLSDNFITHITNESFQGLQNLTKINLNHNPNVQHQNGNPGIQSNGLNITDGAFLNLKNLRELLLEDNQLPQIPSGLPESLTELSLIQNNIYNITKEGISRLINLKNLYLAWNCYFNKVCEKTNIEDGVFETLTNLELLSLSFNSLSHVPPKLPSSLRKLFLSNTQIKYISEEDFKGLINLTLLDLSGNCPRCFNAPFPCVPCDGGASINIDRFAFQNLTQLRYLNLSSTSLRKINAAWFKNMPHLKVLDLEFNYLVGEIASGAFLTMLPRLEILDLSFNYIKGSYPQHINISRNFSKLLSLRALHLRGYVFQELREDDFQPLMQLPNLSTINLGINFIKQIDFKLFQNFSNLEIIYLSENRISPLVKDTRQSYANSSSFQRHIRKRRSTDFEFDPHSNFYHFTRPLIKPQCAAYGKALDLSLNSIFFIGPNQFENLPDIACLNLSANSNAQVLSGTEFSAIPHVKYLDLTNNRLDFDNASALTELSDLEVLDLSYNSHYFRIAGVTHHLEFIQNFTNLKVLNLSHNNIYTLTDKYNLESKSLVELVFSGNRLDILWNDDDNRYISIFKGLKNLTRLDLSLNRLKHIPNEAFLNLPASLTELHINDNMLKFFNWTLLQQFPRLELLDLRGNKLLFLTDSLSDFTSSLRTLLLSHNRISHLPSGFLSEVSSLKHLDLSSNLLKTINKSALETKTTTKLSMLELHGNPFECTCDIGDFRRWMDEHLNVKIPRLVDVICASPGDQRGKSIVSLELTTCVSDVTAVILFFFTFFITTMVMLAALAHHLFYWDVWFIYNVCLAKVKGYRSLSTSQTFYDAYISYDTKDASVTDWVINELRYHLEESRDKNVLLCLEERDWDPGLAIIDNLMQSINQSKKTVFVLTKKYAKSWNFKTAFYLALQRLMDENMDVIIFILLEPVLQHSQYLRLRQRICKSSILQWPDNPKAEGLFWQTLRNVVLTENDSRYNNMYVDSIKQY
Sequence of human TLR9 (Q9NR96 26-1032): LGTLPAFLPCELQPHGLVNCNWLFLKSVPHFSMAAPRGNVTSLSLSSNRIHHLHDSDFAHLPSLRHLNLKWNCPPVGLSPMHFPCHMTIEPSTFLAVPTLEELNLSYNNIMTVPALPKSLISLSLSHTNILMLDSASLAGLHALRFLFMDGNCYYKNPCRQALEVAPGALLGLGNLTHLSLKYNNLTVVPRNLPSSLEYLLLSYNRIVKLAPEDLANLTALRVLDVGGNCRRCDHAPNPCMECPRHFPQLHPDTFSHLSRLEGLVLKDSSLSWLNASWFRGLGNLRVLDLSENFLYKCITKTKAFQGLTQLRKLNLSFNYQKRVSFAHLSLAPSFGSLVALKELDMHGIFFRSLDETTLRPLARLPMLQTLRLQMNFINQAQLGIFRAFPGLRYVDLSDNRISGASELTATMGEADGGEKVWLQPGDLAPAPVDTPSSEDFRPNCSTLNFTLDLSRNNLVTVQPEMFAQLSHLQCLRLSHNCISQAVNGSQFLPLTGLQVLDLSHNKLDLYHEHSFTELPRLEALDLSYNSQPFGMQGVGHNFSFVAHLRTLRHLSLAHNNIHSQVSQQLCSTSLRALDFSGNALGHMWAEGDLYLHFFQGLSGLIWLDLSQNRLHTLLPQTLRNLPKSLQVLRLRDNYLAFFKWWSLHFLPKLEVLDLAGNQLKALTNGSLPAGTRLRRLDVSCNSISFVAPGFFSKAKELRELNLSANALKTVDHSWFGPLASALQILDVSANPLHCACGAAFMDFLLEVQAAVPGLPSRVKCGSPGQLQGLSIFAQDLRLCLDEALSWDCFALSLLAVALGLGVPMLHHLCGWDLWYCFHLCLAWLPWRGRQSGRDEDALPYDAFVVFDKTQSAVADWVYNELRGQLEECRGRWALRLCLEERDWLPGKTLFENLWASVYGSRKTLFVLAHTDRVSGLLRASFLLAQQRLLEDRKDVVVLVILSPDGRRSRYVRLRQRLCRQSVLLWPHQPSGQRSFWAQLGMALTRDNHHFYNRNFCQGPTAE

In the case of `Cc1cc(-c2[nH]c3ccc(C4CCN(CC(O)C(F)(F)F)CC4)cc3c2C(C)C)cc(C)n1` (stereo not drawn) [Example 316, 3-(4-(2-(2,6-dimethylpyridin-4-yl)-3-isopropyl-1H-indol-5-yl)piperidin-1-yl)-1,1,1-trifluoropropan-2-ol], the figures for the IC50 in test [1] (setting [4]), in test [2] (setting [5]) and in test [3] (setting [6]) were 11.9 nM, 2.3 nM and 780 nM, respectively.

With `Cc1cc(-c2[nH]c3ccc(C4CCN(Cc5ccn(C)n5)CC4)cc3c2C(C)C)c(F)cn1` [Example 692], the IC50 was found to be 10.3 nM in test [1] (setting [4]), 0.9 nM in test [2] (setting [5]) and 1480 nM in test [3] (setting [6]).

Turning to `Cc1c(-c2[nH]c3ccc(C4CCNCC4)cc3c2C(C)C)ccnc1Cl` [Example 35, 2-(2-chloro-3-methylpyridin-4-yl)-3-isopropyl-5-(piperidin-4-yl)-1H-indole], the IC50 in test [1] (setting [4]) came out at 26.7 nM; in test [2] (setting [5]), 28.8 nM; in test [3] (setting [6]), 4080 nM.

As for `CC(=O)N1CCC(c2ccc3[nH]c(-c4cc(C)ncc4C)c(C(C)C)c3c2)CC1` [Example 584, 1-(4-(2-(2,5-dimethylpyridin-4-yl)-3-isopropyl-1H-indol-5-yl)piperidin-1-yl)ethan-1-one], the IC50 in test [1] (setting [4]) was 43 nM; in test [2] (setting [5]), 45.9 nM; in test [3] (setting [6]), > 50000 nM.

Regarding `Cc1cc(-c2[nH]c3ccc(C4CCN(C(=O)C(=O)O)CC4)cc3c2C(C)C)cc(C)n1` [Example 859, 2-(4-(2-(2,6-dimethylpyridin-4-yl)-3-isopropyl-1H-indol-5-yl)piperidin-1-yl)-2-oxoacetic acid], the IC50 in test [1] (setting [7]) was 44.1 nM; in test [2] (setting [8]), 539 nM; in test [3] (setting [9]), > 50000 nM.

With `COc1cc(-c2[nH]c3ccc(C4CCN(C5CCN(CC(C)C)CC5)CC4)cc3c2C)ccn1` [Example 781, 5-(1′-isobutyl-[1,4′-bipiperidin]-4-yl)-2-(2-methoxypyridin-4-yl)-3-methyl-1H-indole], the IC50 in test [1] (setting [4]) is 577 nM; in test [2] (setting [5]), 316 nM; in test [3] (setting [6]) it was 206 nM.

`Cc1cc(-c2[nH]c3ccc(C4CCNCC4)cc3c2C(C)C)cc(N)n1` [Example 12, 4-(3-isopropyl-5-(piperidin-4-yl)-1H-indol-2-yl)-6-methylpyridin-2-amine]: the values for the IC50 in test [1] (setting [4]), in test [2] (setting [5]) and in test [3] (setting [6]) were 19.8 nM, 39.7 nM and 362 nM, respectively.

Consider `Cc1cc(-c2[nH]c3ccc(C4CCN(CC(F)F)CC4)cc3c2C(C)C)c(F)cn1` [Example 649, 5-(1-(2,2-difluoroethyl)piperidin-4-yl)-2-(5-fluoro-2-methylpyridin-4-yl)-3-isopropyl-1H-indole], for which the figures for the IC50 in test [1] (setting [4]), in test [2] (setting [5]) and in test [3] (setting [6]) were 45.7 nM, 16.2 nM and > 50000 nM, respectively.

For `Cc1cc(-c2[nH]c3ccc(C4CCN(CC(=O)N5C[C@H](C)C[C@@H]5CO)CC4)cc3c2C(C)C)cc(C)n1` [Example 290, 2-(4-(2-(2,6-dimethylpyridin-4-yl)-3-isopropyl-1H-indol-5-yl)piperidin-1-yl)-1-((2R,4R)-2-(hydroxymethyl)-4-methylpyrrolidin-1-yl) ethan-1-one], the IC50 worked out at 12 nM in test [1] (setting [4]), 66.8 nM in test [2] (setting [5]) and 870 nM in test [3] (setting [6]).

For the compound `COc1ncc(CN2CCC(c3ccc4[nH]c(-c5ccnc(C)c5F)c(C(C)C)c4c3)CC2)cn1` [Example 731, 2-(3-fluoro-2-methylpyridin-4-yl)-3-isopropyl-5-(1-((2-methoxypyrimidin-5-yl)methyl)piperidin-4-yl)-1H-indole], the IC50 in test [1] (setting [4]) is 8.9 nM; in test [2] (setting [5]), 2.7 nM; in test [3] (setting [6]), 1310 nM.

In the case of `COc1cc(-c2[nH]c3ccc(C4CCN(C5CCNCC5)CC4)cc3c2C(C)C)ccn1` [Example 800, 5-([1,4′-bipiperidin]-4-yl)-3-isopropyl-2-(2-methoxypyridin-4-yl)-1H-indole], the values for the IC50 in test [1] (setting [4]), in test [2] (setting [5]) and in test [3] (setting [6]) were 167 nM, 185 nM and 729 nM, respectively.

As to `Cc1cc(-c2[nH]c3ccc(C4CCN(CC(=O)NC5CCCOC5)CC4)cc3c2C(C)C)cc(C)n1` (stereo not drawn) [Example 279, 2-(4-(2-(2,6-dimethylpyridin-4-yl)-3-isopropyl-1H-indol-5-yl)piperidin-1-yl)-N-(tetrahydro-2H-pyran-3-yl)acetamide], the IC50 in test [1] (setting [4]) stood at 2.3 nM; in test [2] (setting [5]), 11 nM; in test [3] (setting [6]) it was 512 nM.

With `Cc1cc(-c2[nH]c3cc(F)c(C4CCN(Cc5ncn(C)n5)CC4)cc3c2C(C)C)cc(C)n1` [Example 832, 2-(2,6-dimethylpyridin-4-yl)-6-fluoro-3-isopropyl-5-(1-((1-methyl-1H-1,2,4-triazol-3-yl)methyl)piperidin-4-yl)-1H-indole], the IC50 in test [1] (setting [7]) stood at 6.2 nM; in test [2] (setting [8]) it was 25.4 nM; in test [3] (setting [9]) it was 3080 nM.

Turning to `Cc1cc(-c2[nH]c3ccc(C4CCN(CC(=O)N5CCCC(C)(C)C5)CC4)cc3c2C(C)C)cc(C)n1` [Example 249, 1-(3,3-dimethylpiperidin-1-yl)-2-(4-(2-(2,6-dimethylpyridin-4-yl)-3-isopropyl-1H-indol-5-yl)piperidin-1-yl)ethan-1-one], the IC50 in test [1] (setting [4]) came out at 15.4 nM; in test [2] (setting [5]) it was 36.3 nM; in test [3] (setting [6]), 973 nM.

Take `Cc1cc(-c2[nH]c3ccc(C4CCN(C(=O)C5CC(=O)N(C)C5)CC4)cc3c2C(C)C)cc(C2CC2)n1` (stereo not drawn) [Example 507, 4-(4-(2-(2-cyclopropyl-6-methylpyridin-4-yl)-3-isopropyl-1H-indol-5-yl)piperidine-1-carbonyl)-1-methylpyrrolidin-2-one]: the half-inhibitory concentration (IC50) in test [1] (setting [4]) was 52 nM; in test [2] (setting [5]), 346 nM; in test [3] (setting [6]), 19000 nM.

Take `Cc1cc(-c2[nH]c3ccc(C4CCN(C5CCN(CC(C)C)CC5)CC4)cc3c2C)ccn1` [Example 810, 5-(1′-isobutyl-[1,4′-bipiperidin]-4-yl)-3-methyl-2-(2-methylpyridin-4-yl)-1H-indole]: the figures for the half-inhibitory concentration (IC50) in test [1] (setting [7]), in test [2] (setting [8]) and in test [3] (setting [9]) were 145 nM, 16.2 nM and 19 nM, respectively.

Regarding `Cc1cc(-c2[nH]c3ccc(C4CCN(C(=O)CN(C)C)CC4)cc3c2C(C)C)ccn1` [Example 509, 2-(dimethylamino)-1-(4-(3-isopropyl-2-(2-methylpyridin-4-yl)-1H-indol-5-yl)piperidin-1-yl)ethan-1-one], the IC50 in test [1] (setting [4]) came to 20 nM; in test [2] (setting [5]), 21.9 nM; in test [3] (setting [6]), 3710 nM.

With `Cc1cc(-c2[nH]c3ccc(C4CCN(C(=O)Cc5cc(C)nn5C)CC4)cc3c2C(C)C)cc(C)n1` [Example 136, 2-(1,3-dimethyl-1H-pyrazol-5-yl)-1-(4-(2-(2,6-dimethylpyridin-4-yl)-3-isopropyl-1H-indol-5-yl)piperidin-1-yl)ethan-1-one], the IC50 was 23.3 nM in test [1] (setting [4]), 134 nM in test [2] (setting [5]) and 30000 nM in test [3] (setting [6]).

Turning to `Cc1cc(-c2[nH]c3ccc(C4CCN(C(=O)C(C)(C)N)CC4)cc3c2C(C)C)cc(C)n1` [Example 194, 2-amino-1-(4-(2-(2,6-dimethylpyridin-4-yl)-3-isopropyl-1H-indol-5-yl)piperidin-1-yl)-2-methylpropan-1-one], the IC50 in test [1] (setting [4]) was determined as 0.6 nM; in test [2] (setting [5]), 9.3 nM; in test [3] (setting [6]), 213 nM.

On to `CCC(=O)N1CCC(c2ccc3[nH]c(-c4ccnc(C)c4)c(C(C)C)c3c2)CC1` [Example 603, 1-(4-(3-isopropyl-2-(2-methylpyridin-4-yl)-1H-indol-5-yl)piperidin-1-yl)propan-1-one], for which the IC50 came to 49 nM in test [1] (setting [4]), 228 nM in test [2] (setting [5]) and 37300 nM in test [3] (setting [6]).

Broadly, the IC50 is the concentration that gives 50% inhibition.
